Source: ChEMBL document CHEMBL1201862, “PubChem BioAssay data set” (2004)
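Interpolation was linear, between the two tested concentrations surrounding the appropriate level; five concentrations were tested over 48 hours in 96-well plates. GI50 is the concentration that inhibits growth by half.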 The source made the active and inactive calls. No stated cut-off is given here; in the data, active = GI50 up to about 1.1 µM and inactive = higher.

Assays:
Experiment in all cases: NCI anticancer screen, dose series, 48 h
786-0 = tested on: 786-0
A498 = tested on: A498
ACHN = tested on: ACHN
COLO 205 = tested on: COLO 205
HOP-62 = tested on: HOP-62
K562 = tested on: K562
OVCAR-3 = tested on: OVCAR-3
RPMI-8226 = tested on: RPMI-8226
SK-MEL-2 = tested on: SK-MEL-2
SNB-75 = tested on: SNB-75
SR = tested on: SR
SW-620 = tested on: SW-620
TK-10 = tested on: TK-10
U-251 = tested on: U-251
UACC-257 = tested on: UACC-257
UO-31 = tested on: UO-31

Measured: GI50

O=CN/C=C\c1cc(O)ccc1O
inactive: 786-0 15.8 µM | A498 74.8 µM | ACHN 15 µM | COLO 205 14.2 µM | HOP-62 18.6 µM | K562 13.3 µM | OVCAR-3 12.2 µM | RPMI-8226 13.6 µM | SK-MEL-2 > 48.9 µM | SNB-75 > 100 µM | SR 3.91 µM | SW-620 12.6 µM | TK-10 > 46.2 µM | U-251 32 µM | UACC-257 11.7 µM | UO-31 13.8 µM

BrC(Br)([P+](c1ccccc1)(c1ccccc1)c1ccccc1)[P+](c1ccccc1)(c1ccccc1)c1ccccc1
inactive: 786-0 13.5 µM | A498 22.4 µM | ACHN 17.7 µM | COLO 205 16.4 µM | HOP-62 40.5 µM | OVCAR-3 11.9 µM | RPMI-8226 6.87 µM | SK-MEL-2 16.5 µM | SNB-75 19.4 µM | SR 14 µM | SW-620 12.2 µM | TK-10 14.1 µM | U-251 20.3 µM | UACC-257 19.5 µM | UO-31 23.6 µM

O=C/C(=C(/Cl)c1ccc(O)cc1)c1ccccc1
inactive: 786-0 27.8 µM | A498 50.5 µM | ACHN 20.9 µM | COLO 205 23 µM | K562 45.3 µM | OVCAR-3 17.1 µM | RPMI-8226 17.2 µM | SK-MEL-2 32.7 µM | SNB-75 15.3 µM | SR > 100 µM | SW-620 27.6 µM | TK-10 29 µM | U-251 24 µM | UACC-257 31.2 µM | UO-31 21 µM

Cc1cccc(NC2=NC(=O)C(CC(=O)Nc3ccccc3Cl)S2)c1 (stereo not given)
inactive: 786-0 > 100 µM | A498 > 100 µM | ACHN > 100 µM | K562 > 100 µM | OVCAR-3 > 100 µM | RPMI-8226 > 100 µM | SK-MEL-2 > 100 µM | SNB-75 > 100 µM | SR > 100 µM | SW-620 > 100 µM | TK-10 > 100 µM | UACC-257 > 100 µM | UO-31 > 100 µM

Cn1cnc([N+](=O)[O-])c1Sc1ccccn1
inactive: 786-0 > 100 µM | A498 > 100 µM | ACHN > 100 µM | COLO 205 76.4 µM | HOP-62 > 100 µM | K562 > 100 µM | OVCAR-3 > 100 µM | RPMI-8226 > 100 µM | SK-MEL-2 74.6 µM | SNB-75 > 100 µM | SR 50.6 µM | SW-620 > 100 µM | TK-10 > 100 µM | U-251 > 100 µM | UACC-257 > 100 µM | UO-31 87.1 µM

C=CCC1(CN(C)C)CC/C(=C\c2cc(OC)c(OC)c(OC)c2)C1=O (stereo not given)
inactive: 786-0 19.4 µM | A498 29.4 µM | ACHN 25.8 µM | COLO 205 17 µM | HOP-62 77.8 µM | K562 20.4 µM | OVCAR-3 24 µM | RPMI-8226 24.5 µM | SK-MEL-2 42.8 µM | SNB-75 62.2 µM | SR 19.6 µM | SW-620 18.7 µM | TK-10 18.8 µM | U-251 23 µM | UACC-257 27.7 µM | UO-31 26.5 µM

Cc1ccccc1C1=[N+]([O-])c2ccccc2C1=O
inactive: 786-0 17.4 µM | A498 83.8 µM | ACHN 16.9 µM | COLO 205 15.7 µM | HOP-62 23.1 µM | K562 20.9 µM | OVCAR-3 12.7 µM | RPMI-8226 39.2 µM | SK-MEL-2 3.22 µM | SNB-75 20.2 µM | SR 54.7 µM | SW-620 26.4 µM | TK-10 18.3 µM | U-251 16.9 µM | UACC-257 14.7 µM | UO-31 19.1 µM

C/C=C1\CN2CCc3c([nH]c4ccccc34)C2CC1CCO (stereo not given)
inactive: 786-0 > 100 µM | A498 > 100 µM | ACHN > 100 µM | COLO 205 > 100 µM | HOP-62 > 100 µM | K562 > 100 µM | OVCAR-3 > 100 µM | SK-MEL-2 > 100 µM | SNB-75 28.8 µM | SR > 100 µM | SW-620 > 100 µM | TK-10 > 100 µM | U-251 > 100 µM | UACC-257 > 100 µM | UO-31 74.8 µM

Cc1ccccc1NC(=O)CC(=O)NNCC(=O)Nc1nnc(-c2ccccc2)s1
inactive: 786-0 31.9 µM | A498 30.9 µM | ACHN 54.2 µM | COLO 205 > 100 µM | HOP-62 42.9 µM | K562 37.8 µM | OVCAR-3 31.4 µM | RPMI-8226 25 µM | SK-MEL-2 > 100 µM | SNB-75 24.7 µM | SR 32.1 µM | SW-620 87.7 µM | TK-10 42.7 µM | U-251 50 µM | UACC-257 > 100 µM | UO-31 45 µM

N#CC12Cc3cc4c(cc3-c3cccc(c31)CCN2C(=O)c1ccccc1)OCO4 (stereo not given)
inactive: 786-0 > 10 µM | A498 53.3 µM | ACHN > 100 µM | COLO 205 > 100 µM | HOP-62 53.8 µM | K562 > 100 µM | OVCAR-3 > 100 µM | RPMI-8226 > 100 µM | SK-MEL-2 > 100 µM | SNB-75 21.6 µM | SR > 100 µM | SW-620 > 100 µM | TK-10 > 100 µM | U-251 > 100 µM | UACC-257 > 100 µM | UO-31 > 100 µM

CN(C)CCN(C)C(=O)C1CCCN1C(=O)OCc1ccccc1 (stereo not given)
inactive: 786-0 > 100 µM | A498 > 100 µM | ACHN > 100 µM | COLO 205 > 100 µM | HOP-62 > 100 µM | K562 61.1 µM | OVCAR-3 > 100 µM | RPMI-8226 > 100 µM | SK-MEL-2 > 100 µM | SNB-75 > 100 µM | SR 38.6 µM | SW-620 > 100 µM | TK-10 > 100 µM | U-251 > 100 µM | UACC-257 > 100 µM | UO-31 > 100 µM

CC(=O)OCC1OC(OC(C)=O)C(NC#N)C(OC(C)=O)C1OC(C)=O (stereo not given)
inactive: 786-0 > 100 µM | A498 > 100 µM | ACHN 49.7 µM | COLO 205 > 100 µM | HOP-62 > 100 µM | K562 > 100 µM | OVCAR-3 > 100 µM | RPMI-8226 67.8 µM | SK-MEL-2 50.7 µM | SNB-75 > 100 µM | SR 73.5 µM | SW-620 > 100 µM | TK-10 > 100 µM | U-251 > 100 µM | UO-31 36.1 µM

Cc1ccc(NC(=O)C(=O)C2C(=O)N(c3ccccc3)N=C2N)cc1C (stereo not given)
inactive: 786-0 > 100 µM | A498 > 100 µM | ACHN > 100 µM | COLO 205 > 100 µM | HOP-62 > 100 µM | K562 > 100 µM | OVCAR-3 > 100 µM | RPMI-8226 > 100 µM | SNB-75 > 100 µM | SR > 100 µM | SW-620 > 100 µM | TK-10 > 100 µM | U-251 > 100 µM | UACC-257 > 100 µM | UO-31 > 100 µM
